Source: PubChem BioAssay (NCI)
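Assay format: 96-well plates, 48-hour exposure. TGI: total growth inhibition.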

Tests used:
Experiment in all cases: inhibition of tumour cell growth, NCI panel, 48 h
[1] = tested on: 786-0 renal
[2] = tested on: A498 renal
[3] = tested on: A549 NSCLC
[4] = tested on: ACHN renal
[5] = tested on: BT-549 breast
[6] = tested on: CAKI-1 renal
[7] = tested on: CCRF-CEM leukemia
[8] = tested on: COLO 205 colon
[9] = tested on: DU-145 prostate
[10] = tested on: EKVX NSCLC
[11] = tested on: HCC-2998 colon
[12] = tested on: HCT-116 colon
[13] = tested on: HCT-15 colon
[14] = tested on: HL-60(TB) leukemia
[15] = tested on: HOP-62 NSCLC
[16] = tested on: HOP-92 NSCLC
[17] = tested on: HS 578T breast
[18] = tested on: HT29 colon
[19] = tested on: IGROV1 ovarian
[20] = tested on: K-562 leukemia
[21] = tested on: KM12 colon
[22] = tested on: LOX IMVI melanoma
[23] = tested on: MALME-3M melanoma
[24] = tested on: MCF7 breast
[25] = tested on: MDA-MB-231 breast
[26] = tested on: MDA-MB-435
[27] = tested on: MDA-N
[28] = tested on: MOLT-4 leukemia
[29] = tested on: NCI-H226 lung
[30] = tested on: NCI-H23 lung
[31] = tested on: NCI-H460 lung
[32] = tested on: NCI-H522 lung
[33] = tested on: NCI/ADR-RES ovarian
[34] = tested on: OVCAR-3 ovarian
[35] = tested on: OVCAR-4 ovarian
[36] = tested on: OVCAR-5 ovarian
[37] = tested on: OVCAR-8 ovarian
[38] = tested on: PC-3 prostate
[39] = tested on: RPMI-8226 leukemia
[40] = tested on: RXF 393 renal
[41] = tested on: SF-268 CNS
[42] = tested on: SF-295 CNS
[43] = tested on: SF-539 CNS
[44] = tested on: SK-MEL-2 melanoma
[45] = tested on: SK-MEL-28 melanoma
[46] = tested on: SK-MEL-5 melanoma
[47] = tested on: SK-OV-3 ovarian
[48] = tested on: SN12C renal
[49] = tested on: SNB-75 CNS
[50] = tested on: SR leukemia
[51] = tested on: SW-620 colon
[52] = tested on: T-47D breast
[53] = tested on: TK-10 renal
[54] = tested on: UACC-257 melanoma
[55] = tested on: UACC-62 melanoma
[56] = tested on: UO-31 renal
[57] = tested on: M14 melanoma
[58] = tested on: SNB-19 CNS
[59] = tested on: U251 CNS

CN(/N=C(\C(=O)O)c1ccccc1)C1=NCCN1
TGI [1]: > 100 µM | TGI [2]: > 100 µM | TGI [3]: > 100 µM | TGI [4]: > 100 µM | TGI [5]: > 100 µM | TGI [6]: > 100 µM | TGI [7]: > 100 µM | TGI [8]: > 100 µM | TGI [9]: > 100 µM | TGI [10]: > 100 µM | TGI [11]: > 100 µM | TGI [12]: > 100 µM | TGI [13]: > 100 µM | TGI [14]: > 100 µM | TGI [15]: > 100 µM | TGI [16]: > 100 µM | TGI [17]: > 100 µM | TGI [18]: > 100 µM | TGI [19]: > 100 µM | TGI [20]: > 100 µM | TGI [21]: > 100 µM | TGI [22]: > 100 µM | TGI [23]: > 100 µM | TGI [24]: > 100 µM | TGI [25]: > 100 µM | TGI [26]: > 100 µM | TGI [27]: > 100 µM | TGI [28]: > 100 µM | TGI [29]: > 100 µM | TGI [30]: > 100 µM | TGI [31]: > 100 µM | TGI [32]: > 100 µM | TGI [33]: > 100 µM | TGI [34]: > 100 µM | TGI [35]: > 100 µM | TGI [36]: > 100 µM | TGI [37]: > 100 µM | TGI [38]: > 100 µM | TGI [39]: > 100 µM | TGI [40]: > 100 µM | TGI [41]: > 100 µM | TGI [42]: > 100 µM | TGI [43]: > 100 µM | TGI [44]: > 100 µM | TGI [45]: > 100 µM | TGI [46]: > 100 µM | TGI [47]: > 100 µM | TGI [48]: > 100 µM | TGI [49]: > 100 µM | TGI [50]: > 100 µM | TGI [51]: > 100 µM | TGI [52]: > 100 µM | TGI [53]: > 100 µM | TGI [54]: > 100 µM | TGI [55]: > 100 µM | TGI [56]: > 100 µM

Cc1cc(Cc2cc(Cc3cc(C)cc(C(C)(C)C)c3O)c(C)cc2C)c(O)c(C(C)(C)C)c1
TGI [1]: 31.6 µM | TGI [2]: 30.6 µM | TGI [3]: 30.8 µM | TGI [4]: 30.3 µM | TGI [5]: 40.6 µM | TGI [6]: 42.9 µM | TGI [7]: 48.3 µM | TGI [8]: 36.7 µM | TGI [9]: 27.6 µM | TGI [10]: 34.5 µM | TGI [11]: 27.1 µM | TGI [12]: 30 µM | TGI [13]: 42 µM | TGI [14]: 46.9 µM | TGI [15]: 36.2 µM | TGI [16]: 29.2 µM | TGI [17]: 52 µM | TGI [18]: 34.7 µM | TGI [19]: 40.5 µM | TGI [20]: 45 µM | TGI [21]: 34.7 µM | TGI [22]: 41.9 µM | TGI [57]: 33.8 µM | TGI [23]: 31.7 µM | TGI [24]: 27.2 µM | TGI [25]: > 100 µM | TGI [26]: 26.2 µM | TGI [27]: 35 µM | TGI [28]: > 100 µM | TGI [29]: 31.5 µM | TGI [30]: 37.9 µM | TGI [32]: 34 µM | TGI [33]: 42.4 µM | TGI [34]: 32.9 µM | TGI [35]: 25.4 µM | TGI [36]: 42.9 µM | TGI [37]: 75.4 µM | TGI [38]: > 100 µM | TGI [39]: 65 µM | TGI [40]: 24.8 µM | TGI [41]: 35.4 µM | TGI [42]: 39.4 µM | TGI [44]: > 100 µM | TGI [45]: 37 µM | TGI [46]: 30.2 µM | TGI [47]: 35.6 µM | TGI [48]: 31.7 µM | TGI [58]: 31.9 µM | TGI [49]: 23.9 µM | TGI [50]: 70.6 µM | TGI [51]: 40.8 µM | TGI [52]: 34.8 µM | TGI [53]: 55.1 µM | TGI [59]: > 100 µM | TGI [54]: 34.8 µM | TGI [55]: 28.1 µM | TGI [56]: 32 µM
